Experimental data from publication PMC12260505, “First-in-Human Phase I/IIa Study of the First-in-Class CDK2/4/6 Inhibitor PF-06873600 Alone or with Endocrine Therapy in Patients with Breast Cancer” (Clinical Cancer Research, 2025).

Assay: Adverse events graded by NCI CTCAE version 4.03, phase I/IIa study
Assay type: in vivo
Experimental: Part 1 included adult patients with HR^+/HER2^− advanced breast cancer or mBC (third- or fourth-line setting), locally recurrent/advanced or metastatic TNBC, or advanced platinum-resistant epithelial ovarian cancer/fallopian tube cancer/primary peritoneal cancer who received oral PF-06873600 at doses of 1 to 50 mg twice daily or oral PF-06873600 plus ET (letrozole or fulvestrant). Primary endpoints for part 1 dose escalation determined safety and tolerability to define dose-limiting toxicities (DLT), estimate the maximum tolerated dose, and select the recommended dose for expansion (RDE). Safety endpoints included adverse events (AE) characterized by type, frequency, severity [as graded by NCI Common Terminology Criteria for Adverse Events (CTCAE) version 4.03], timing, seriousness, and relationship to study therapy. Laboratory abnormalities were characterized by type, frequency, severity (as graded by NCI CTCAE version 4.03), timing, vital sign abnormalities, and heart rate–corrected QT interval (e.g., QTcF). Secondary endpoints included PK, preliminary antitumor activity as assessed using RECIST version 1.1, time-to-event endpoints including objective response rate (ORR), duration of response (DoR), progression-free survival (PFS), time to progression (TTP), and modulation of tumor CDK biomarkers [phosphorylated Rb (pRb), Ki67]. Exploratory endpoints included molecular profiling of tumor and ctDNA and the relationship to clinical outcome.
AEs were graded by NCI CTCAE version 4.03.

[1] = Part 2C 25 mg BID IR + Fulvestrant, N = 28
[2] = parts 1 and 2, N = 151, all cycles

Structure (SMILES): C[C@@]1(O)CCC[C@H]1n1c(=O)c(C(F)F)cc2cnc(NC3CCN(S(C)(=O)=O)CC3)nc21 [PF-06873600]
- Treatment-related TEAE, Headache, Grade 3/4 [1]: 0 n (%)
- Treatment-related TEAE, Headache, Grade 5 [1]: 0 n (%)
- Treatment-related TEAE, Headache, Total [1]: 9 (32.1) n (%)
- Treatment-related TEAE, Leukopenia, Grade 1 [1]: 3 (10.7) n (%)
- Treatment-related TEAE, Leukopenia, Grade 2 [1]: 3 (10.7) n (%)
- Treatment-related TEAE, Leukopenia, Grade 3/4 [1]: 0 n (%)
- Treatment-related TEAE, Leukopenia, Grade 5 [1]: 0 n (%)
- Treatment-related TEAE, Leukopenia, Total [1]: 6 (21.4) n (%)
- Treatment-related TEAE, Nausea, Grade 1 [1]: 12 (42.9 ) n (%)
- Treatment-related TEAE, Nausea, Grade 2 [1]: 7 (25.0) n (%)
- Treatment-related TEAE, Nausea, Grade 3/4 [1]: 0 n (%)
- Treatment-related TEAE, Nausea, Grade 5 [1]: 0 n (%)
- Treatment-related TEAE, Nausea, Total [1]: 19 (67.9 ) n (%)
- Treatment-related TEAE, Neutropenia, Grade 1 [1]: 1 (3.6) n (%)
- Treatment-related TEAE, Neutropenia, Grade 2 [1]: 2 (7.1) n (%)
- Treatment-related TEAE, Neutropenia, Grade 3/4 [1]: 6 (21.4) n (%)
- Treatment-related TEAE, Neutropenia, Grade 5 [1]: 0 n (%)
- Treatment-related TEAE, Neutropenia, Total [1]: 9 (32.1) n (%)
- Treatment-related TEAE, Thrombocytopenia, Grade 1 [1]: 1 (3.6) n (%)
- Treatment-related TEAE, Thrombocytopenia, Grade 2 [1]: 0 n (%)
- Treatment-related TEAE, Thrombocytopenia, Grade 3/4 [1]: 1 (3.6) n (%)
- Treatment-related TEAE, Thrombocytopenia, Grade 5 [1]: 0 n (%)
- Treatment-related TEAE, Thrombocytopenia, Total [1]: 2 (7.1) n (%)
- Treatment-related TEAE, Vomiting, Grade 1 [1]: 8 (28.6) n (%)
- Treatment-related TEAE, Vomiting, Grade 2 [1]: 4 (14.3) n (%)
- Treatment-related TEAE, Vomiting, Grade 3/4 [1]: 0 n (%)
- Treatment-related TEAE, Vomiting, Grade 5 [1]: 0 n (%)
- Treatment-related TEAE, Vomiting, Total [1]: 12 (42.9 ) n (%)
- All-causality SAE, abdominal pain (parts 1 and 2, 151 patients): 2.0%
- All-causality SAE, colitis (parts 1 and 2, 151 patients): 2.0%
- All-causality SAE, febrile neutropenia (parts 1 and 2, 151 patients): 3.3%
- All-causality SAE, hypotension (parts 1 and 2, 151 patients): 2.0%
- All-causality TEAE, alopecia (parts 1 and 2, 151 patients): 28.5%
- All-causality TEAE, anemia (parts 1 and 2, 151 patients): 44.4%
- All-causality TEAE, constipation (parts 1 and 2, 151 patients): 25.2%
- All-causality TEAE, diarrhea (parts 1 and 2, 151 patients): 22.5%
- All-causality TEAE, fatigue (parts 1 and 2, 151 patients): 43.7%
- All-causality TEAE, headache (parts 1 and 2, 151 patients): 29.1%
- All-causality TEAE, leukopenia (parts 1 and 2, 151 patients): 25.8%
- All-causality TEAE, nausea (parts 1 and 2, 151 patients): 62.9%
- All-causality TEAE, neutropenia (parts 1 and 2, 151 patients): 37.7%
- All-causality TEAE, vomiting (parts 1 and 2, 151 patients): 35.8%
- All-causality TEAEs, any, patients (parts 1 and 2, 151 patients): 97.4%
- All-causality serious adverse events (SAE), patients (parts 1 and 2, 151 patients): 22.5%
- Grade 3 all-causality TEAEs, patients (parts 1 and 2, 151 patients): 34.4%
- Grade 3 and grade 4 all-causality TEAEs, patients (parts 1 and 2, 151 patients): 45.7%
- Grade 3 treatment-related TEAEs, patients (parts 1 and 2, 151 patients): 25.8%
- Grade 4 all-causality TEAEs, patients (parts 1 and 2, 151 patients): 11.3%
- Grade 4 treatment-related TEAEs, patients (parts 1 and 2, 151 patients): 9.9%
- TEAE leading to dose interruptions, anemia (parts 1 and 2, 151 patients): 11.3%
- TEAE leading to dose interruptions, nausea (parts 1 and 2, 151 patients): 11.3%
- TEAE leading to dose interruptions, neutropenia (parts 1 and 2, 151 patients): 17.9%
- TEAE leading to dose reductions, fatigue (parts 1 and 2, 151 patients): 5.3%
- TEAE leading to dose reductions, nausea (parts 1 and 2, 151 patients): 4.6%
- TEAE leading to dose reductions, neutropenia (parts 1 and 2, 151 patients): 6.0%
- TEAEs leading to discontinuation, patients (parts 1 and 2, 151 patients): 7.3%
- TEAEs leading to dose interruptions, patients (parts 1 and 2, 151 patients): 51.7%
- TEAEs leading to dose reductions, patients (parts 1 and 2, 151 patients): 21.2%
- Treatment-related SAE, colitis (parts 1 and 2, 151 patients): 1.3%
- Treatment-related SAE, febrile neutropenia (parts 1 and 2, 151 patients): 3.3%
- Treatment-related SAE, neutropenia (parts 1 and 2, 151 patients): 1.3%
- Treatment-related SAE, stomatitis (parts 1 and 2, 151 patients): 1.3%
- Treatment-related SAEs, patients (parts 1 and 2, 151 patients): 8.6%
- Treatment-related TEAE, Alopecia, Grade 1 [2]: 21 (13.9) n (%)
- Treatment-related TEAE, Alopecia, Grade 2 [2]: 21 (13.9) n (%)
- Treatment-related TEAE, Alopecia, Grade 3/4 [2]: 0 n (%)
- Treatment-related TEAE, Alopecia, Grade 5 [2]: 0 n (%)
- Treatment-related TEAE, Alopecia, Total [2]: 42 (27.8) n (%)
- Treatment-related TEAE, Anemia, Grade 1 [2]: 13 (8.6) n (%)
- Treatment-related TEAE, Anemia, Grade 2 [2]: 28 (18.5) n (%)
- Treatment-related TEAE, Anemia, Grade 3/4 [2]: 21 (13.9) n (%)
- Treatment-related TEAE, Anemia, Grade 5 [2]: 0 n (%)
- Treatment-related TEAE, Anemia, Total [2]: 62 (41.1) n (%)
- Treatment-related TEAE, Any AE, Grade 1 [2]: 27 (17.9) n (%)
- Treatment-related TEAE, Any AE, Grade 2 [2]: 55 (36.4) n (%)
- Treatment-related TEAE, Any AE, Grade 3/4 [2]: 54 (35.8) n (%)
- Treatment-related TEAE, Any AE, Grade 5 [2]: 2 (1.3) n (%)
- Treatment-related TEAE, Any AE, Total [2]: 138 (91.4) n (%)
- Treatment-related TEAE, Constipation, Grade 1 [2]: 13 (8.6) n (%)
- Treatment-related TEAE, Constipation, Grade 2 [2]: 10 (6.6) n (%)
- Treatment-related TEAE, Constipation, Grade 3/4 [2]: 0 n (%)
- Treatment-related TEAE, Constipation, Grade 5 [2]: 0 n (%)
- Treatment-related TEAE, Constipation, Total [2]: 23 (15.2) n (%)
- Treatment-related TEAE, Diarrhea, Grade 1 [2]: 21 (13.9) n (%)
- Treatment-related TEAE, Diarrhea, Grade 2 [2]: 4 (2.6) n (%)
- Treatment-related TEAE, Diarrhea, Grade 3/4 [2]: 2 (1.3) n (%)
- Treatment-related TEAE, Diarrhea, Grade 5 [2]: 0 n (%)
- Treatment-related TEAE, Diarrhea, Total [2]: 27 (17.9) n (%)
- Treatment-related TEAE, Fatigue, Grade 1 [2]: 23 (15.2) n (%)
- Treatment-related TEAE, Fatigue, Grade 2 [2]: 25 (16.6) n (%)
- Treatment-related TEAE, Fatigue, Grade 3/4 [2]: 12 (7.9) n (%)
- Treatment-related TEAE, Fatigue, Grade 5 [2]: 0 n (%)
- Treatment-related TEAE, Fatigue, Total [2]: 60 (39.7) n (%)
- Treatment-related TEAE, Headache, Grade 1 [2]: 28 (18.5) n (%)
- Treatment-related TEAE, Headache, Grade 2 [2]: 4 (2.6) n (%)
- Treatment-related TEAE, Headache, Grade 3/4 [2]: 0 n (%)
- Treatment-related TEAE, Headache, Grade 5 [2]: 0 n (%)
- Treatment-related TEAE, Headache, Total [2]: 32 (21.2) n (%)
- Treatment-related TEAE, Leukopenia, Grade 1 [2]: 5 (3.3) n (%)
- Treatment-related TEAE, Leukopenia, Grade 2 [2]: 23 (15.2) n (%)
- Treatment-related TEAE, Leukopenia, Grade 3/4 [2]: 9 (6.0) n (%)
- Treatment-related TEAE, Leukopenia, Grade 5 [2]: 0 n (%)
- Treatment-related TEAE, Leukopenia, Total [2]: 37 (24.5) n (%)
- Treatment-related TEAE, Nausea, Grade 1 [2]: 65 (43.0) n (%)
- Treatment-related TEAE, Nausea, Grade 2 [2]: 26 (17.2) n (%)
- Treatment-related TEAE, Nausea, Grade 3/4 [2]: 1 (0.7) n (%)
- Treatment-related TEAE, Nausea, Grade 5 [2]: 0 n (%)
- Treatment-related TEAE, Nausea, Total [2]: 92 (60.9) n (%)
- Treatment-related TEAE, Neutropenia, Grade 1 [2]: 6 (4.0) n (%)
- Treatment-related TEAE, Neutropenia, Grade 2 [2]: 19 (12.6) n (%)
- Treatment-related TEAE, Neutropenia, Grade 3/4 [2]: 31 (20.5) n (%)
- Treatment-related TEAE, Neutropenia, Grade 5 [2]: 0 n (%)
- Treatment-related TEAE, Neutropenia, Total [2]: 56 (37.1) n (%)
- Treatment-related TEAE, Thrombocytopenia, Grade 1 [2]: 16 (10.6) n (%)
- Treatment-related TEAE, Thrombocytopenia, Grade 2 [2]: 4 (2.6) n (%)
- Treatment-related TEAE, Thrombocytopenia, Grade 3/4 [2]: 9 (6.0) n (%)
- Treatment-related TEAE, Thrombocytopenia, Grade 5 [2]: 0 n (%)
- Treatment-related TEAE, Thrombocytopenia, Total [2]: 29 (19.2) n (%)
- Treatment-related TEAE, Vomiting, Grade 1 [2]: 38 (25.2) n (%)
- Treatment-related TEAE, Vomiting, Grade 2 [2]: 12 (7.9) n (%)
- Treatment-related TEAE, Vomiting, Grade 3/4 [2]: 1 (0.7) n (%)
- Treatment-related TEAE, Vomiting, Grade 5 [2]: 0 n (%)
- Treatment-related TEAE, Vomiting, Total [2]: 51 (33.8) n (%)
